Earlier results, collected in patent US20070191304A1, “Methods for performing percutaneous coronary intervention” (priority 2005, published 2007).

Conditions: bivalirudin plus GP IIb/IIIa inhibitors

bivalirudin
Primary endpoint of death, myocardial infarction, urgent revascularization and major bleeding, compared to UFH plus planned GP IIb/IIIa inhibitors: noninferior
